Molecular target: human α2AAR (Homo sapiens (Human), UniProt P08913)
Experiment: Gαi G protein activation, BRET biosensor assay in HEK293T cells
Conditions: HEK-293T, read-out: Gαi Emax
Experimental: Bioluminescense resonance energy transfer. G protein mediated activation of human α2AAR and D2long was monitored with Gαi1-RLucII (71, 72) together with Gβ1 and Gγ1-GFP10. Arrestin recruitment was performed by enhanced bystander BRET using CAAX-rGFP and β-arrestin-2-RLucII as biosensors (all biosensors are provided from M. Bouvier, Université de Montréal, Canada) (71, 73) in the presence of GRK2 as described (66, 74). In brief, HEK293T cells were transfected with a total amount of 3.3 μg DNA per 10^6 cells using linear polyethyleneimine (PEI, Polysciences, 3:1 PEI:DNA ratio) and transferred into 96-well half-area plates (Greiner, Frickenhausen, Germany) at a density of 10,000 cells per well and incubated for 48 hrs. Medium was exchanged with PBS (Hank's balanced salt solution) and cells were stimulated with ligands at 37° C. for 10 min for Gαi stimulation or arrestin recruitment, respectively.

Sequence of human α2AAR (P08913 whole entry): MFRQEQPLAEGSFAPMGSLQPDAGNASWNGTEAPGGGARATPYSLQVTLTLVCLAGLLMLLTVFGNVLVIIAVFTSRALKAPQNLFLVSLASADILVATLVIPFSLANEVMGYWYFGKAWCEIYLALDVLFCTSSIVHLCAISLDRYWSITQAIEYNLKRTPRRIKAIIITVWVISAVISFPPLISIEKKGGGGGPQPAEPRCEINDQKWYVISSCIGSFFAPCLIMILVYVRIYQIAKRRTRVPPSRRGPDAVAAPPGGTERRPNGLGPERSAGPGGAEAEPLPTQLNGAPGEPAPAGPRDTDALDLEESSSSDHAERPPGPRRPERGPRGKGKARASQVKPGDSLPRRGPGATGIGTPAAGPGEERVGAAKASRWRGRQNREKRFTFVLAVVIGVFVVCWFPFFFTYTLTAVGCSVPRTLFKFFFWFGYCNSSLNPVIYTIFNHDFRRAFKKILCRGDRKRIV

Row | Molecule | Emax
1 | NC[C@H](O)c1ccc(O)c(O)c1 [NorEpi, norepinephrine, reference compound] | 100%

Test system: not listed separately
Experiment: Pharmacokinetics in mice (plasma, brain, CSF)
Format: in vivo
Conditions: C57BL/6N ('9087), C57BL/6 (PS75), mouse, plasma, iv, I.V. 10 mg/kg
Experimental: Pharmacokinetics. Pharmacokinetic experiments were performed by Bienta (Enamine Biology Services) in accordance with Enamine pharmacokinetic study protocols and Institutional Animal Care and Use Guidelines (protocol number 1-2/2020). […] In each compound study, nine time points (5, 15, 30, 60, 120, 240, 360, 480 and 1440 min) were collected, each of the time point treatment group included 3 animals. There was also a control group of one animal. In the ‘9087, ‘7075, ‘4622 studies, male C57BL/6N mice were used, for PS75 CD-1 mice, and for ‘2998 male Balb/cAnN mice. For all compound studies the animals were randomly assigned to the treatment groups before the pharmacokinetic study; all animals were fasted for 4 h before dosing. For injections, ‘9087 was dissolved in Captisol—water (40%:60%, w/v), ‘4622 was dissolved in a 20% Kolliphor HS—physiological saline solution, and ‘7075, PS75, and ‘2998 were dissolved in a 20% 2-HPBCD—aqueous solution. The batches of working formulations were prepared 10 minutes prior to the in vivo study.
Mice were injected i.p. with 2,2,2-tribromoethanol at 150 mg/kg prior to drawing CSF and blood. CSF was collected under a stereomicroscope from cisterna magna using 1 mL syringes. Blood collection was performed from the orbital sinus in microtainers containing K3EDTA. Animals were sacrificed by cervical dislocation after the blood samples collection. Blood samples were centrifuged 10 min at 3000 rpm. Brain samples (right lobe) were weighed and transferred into 1.5 ml tubes. All samples were immediately processed, flash-frozen and stored at −70° C. until subsequent analysis.
Plasma samples (40 μL) were mixed with 200 μL of internal standard (IS) solution. After mixing by pipetting and centrifuging for 4 min at 6000 rpm, 4 μL of each supernatant was injected into the LC-MS/MS system. Solutions of internal standards were used to quantify compounds in the plasma samples. […] After this, the samples were centrifuged for 4 min at 14,000 rpm, and supernatant was injected into LC-MS/MS system. CSF samples (2 μL) were mixed with 40 μL of an internal stock solution. After mixing by pipetting and centrifuging for 4 min at 6,000 rpm, 5 μL of each supernatant was injected into LC-MS/MS system.
(§1) Analyses of plasma, brain and CSF samples were conducted at Enamine/Bienta. The concentrations of compounds in plasma and brain samples were determined using high performance liquid chromatography/tandem mass spectrometry (HPLC-MS/MS). Data acquisition and system control was performed using Analyst 1.5.2 software (AB Sciex, Canada). […] Pharmacokinetic data analysis was performed using noncompartmental, bolus injection or extravascular input analysis models in WinNonlin 5.2 (PharSight).
Mice were injected i.p. with 2,2,2-tribromoethanol at 150 mg/kg prior to drawing CSF and blood. CSF was collected under a stereomicroscope from cisterna magna using 1 mL syringes. Blood collection was performed from the orbital sinus in microtainers containing K3EDTA. Animals were sacrificed by cervical dislocation after the blood samples collection. Blood samples were centrifuged 10 min at 3000 rpm. Brain samples (right lobe) were weighed and transferred into 1.5 mL tubes. All samples were immediately processed, flash-frozen and stored at −70° C. until subsequent analysis.
as §1
Additional pharmacokinetic experiments were performed by Sai Life Sciences (Hyderabad, India) in accordance with the Sai Study Protocol SAIDMPK/PK-22-04-0340. […] Testing was done in C57BL/6 mice.

Row | Molecule | AUC | Cmax
2 | c1ccc2c(Nc3ccncc3)cncc2c1 [Compound 9087, N-(pyridin-4-yl)isoquinolin-4-amine] | 1750 ng·h/mL | 2020 ng/mL

Same assay, conditions: C57BL/6N ('9087), C57BL/6 (PS75), mouse, plasma, po, P.O. 30 mg/kg

Row | Molecule | AUC | Cmax
3 | c1ccc2c(Nc3ccncc3)cncc2c1 [Compound 9087, N-(pyridin-4-yl)isoquinolin-4-amine] | 8430 ng·h/mL | 2720 ng/mL

Same assay, conditions: I.P. 10 mg/kg

Row | Molecule | AUC Brain | AUC CSF | Cmax Brain | Cmax CSF
4 | c1ccc2c(Nc3ccncc3)cncc2c1 [Compound 9087, N-(pyridin-4-yl)isoquinolin-4-amine] | 439000 ng·min/mL | 154000 ng·min/mL | 5960 ng/mL | 447 ng/mL

Same assay, conditions: I.V. 10 mg/kg

Row | Molecule | Cmax Brain
5 | c1ccc2c(Nc3ccncc3)cncc2c1 [Compound 9087, N-(pyridin-4-yl)isoquinolin-4-amine] | 6590 ng/mL

Same assay, conditions: P.O. 30 mg/kg

Row | Molecule | Cmax Brain
6 | c1ccc2c(Nc3ccncc3)cncc2c1 [Compound 9087, N-(pyridin-4-yl)isoquinolin-4-amine] | 14000 ng/mL

Same assay, conditions: mouse, plasma, ip, I.P. 10 mg/kg

Row | Molecule | AUC | Cmax
7 | c1ccc2c(Nc3ccncc3)cncc2c1 [Compound 9087, N-(pyridin-4-yl)isoquinolin-4-amine] | 1830 ng·h/mL | 1440 ng/mL

Molecular target: T1, ALPHA-2A ADRENERGIC RECEPTOR (Homo sapiens (Human), UniProt P08913)
Experiment: Gi recruitment (G protein)
Format: cell-based
Conditions: Gi recruitment, Table 6, result in words

T1 sequence (P08913 whole entry): as above

Row | Molecule | functional classification (agonist / weak agonist)
8 | Cc1cc(Nc2ccncc2)c2ccccc2n1 [Compound 9506, 2-methyl-N-(pyridin-4-yl)quinolin-4-amine] | weak agonist
9 | Cc1cc2c(Nc3ccncc3)cccc2cn1 [PS74] | agonist
10 | Fc1ccc2cncc(Nc3ccncc3)c2c1 [PS76] | agonist
11 | CN1CCc2c(Nc3ccncc3)cccc2C1=O [PS77] | agonist
12 | CN1C(=O)CCc2c(Nc3ccncc3)cccc21 [PS78] | agonist
13 | COc1cccc2c(Nc3ccncc3)cncc12 [PS79] | agonist
14 | Fc1cccc2c(Nc3ccncc3)cncc12 [PS82] | agonist
15 | Oc1ccc2c(Nc3ccncc3)cccc2c1 [PS85] | agonist

Same assay, conditions: Gi recruitment, Table 6; read-out: EC50

Row | Molecule | EC50
16 | Cc1cc(Nc2ccncc2)c2ccccc2n1 [Compound 9506, 2-methyl-N-(pyridin-4-yl)quinolin-4-amine] | 950 nM
17 | COc1ccc2c(Nc3ccncc3)cccc2c1 [PS73] | 50 nM
18 | Cc1cc2c(Nc3ccncc3)cccc2cn1 [PS74] | 450 nM
19 | Fc1ccc2cncc(Nc3ccncc3)c2c1 [PS76] | 89 nM
20 | CN1CCc2c(Nc3ccncc3)cccc2C1=O [PS77] | 1200 nM
21 | CN1C(=O)CCc2c(Nc3ccncc3)cccc21 [PS78] | 43 nM
22 | COc1cccc2c(Nc3ccncc3)cncc12 [PS79] | 100 nM
23 | Fc1cccc2c(Nc3ccncc3)cncc12 [PS82] | 230 nM
24 | Oc1ccc2c(Nc3ccncc3)cccc2c1 [PS85] | 87 nM

Same assay, conditions: Gi recruitment, Tables 7-9

Row | Molecule | G protein Emax (%)
25 | 4-(1,2,5,6-tetrahydropyridin-3-yl)-1H-indole [PS-NN04] | 63%

Same assay, conditions: Gi recruitment, Tables 7-9; read-out: G protein EC50

Row | Molecule | EC50
26 | 3-Methyl-N^1-(pyridin-2-yl)benzene-1,4-diamine [Compound 5822] | 1100 nM
27 | 4-(1,2,5,6-tetrahydropyridin-3-yl)-1H-indole [PS-NN04] | 130 nM
28 | 4-Methyl-5-(1,2,5,6-tetrahydropyridin-3-yl)-1H-pyrrolo[2,3-b]pyridine [Compound 9661] | 680 nM
29 | N#Cc1cc2[nH]ncc2cc1-c1ccc(N)nc1 [BSC2998-E02] | 2900 nM
30 | CN(c1cccc(Cl)c1)c1cc(N)ccn1 [Compound 2029, N^2-(3-Chlorophenyl)-N^2-methylpyridine-2,4-diamine] | 1400 nM
31 | C1=C(c2cccc3ccccc23)CNCC1 [Compound 3461, 5-(Naphthalen-1-yl)-1,2,3,6-tetrahydropyridine] | 450 nM
32 | C1=C(c2cccc3c2CCC3)CNCC1 [Compound 3827, 5-(2,3-dihydro-1H-inden-4-yl)-1,2,3,6-tetrahydropyridine] | 390 nM
33 | Cc1ccc(Nc2ccccn2)cc1C [Compound 4472, N-(3,4-Dimethylphenyl)pyridin-2-amine] | 3300 nM
34 | Nc1ccnc(Oc2ccc(F)cc2)c1 [Compound 4783, 2-(4-Fluorophenoxy)pyridin-4-amine] | 580 nM
35 | Cc1c(-c2cccnc2N)ccc2[nH]ncc12 [Compound 5193, 3-(4-Methyl-1H-indazol-5-yl)pyridin-2-amine] | 3100 nM
36 | Cc1cc(-c2ccc3[nH]ncc3c2C)cnc1N [Compound 5649, 3-Methyl-5-(4-methyl-1H-indazol-5-yl)pyridin-2-amine] | 1000 nM
37 | CN(c1ccc(N)c(F)c1)c1ccccn1 [Compound 6254, 3-Fluoro-N^1-methyl-N^1-(pyridin-2-yl)benzene-1,4-diamine] | 5400 nM
38 | Nc1ccc(Nc2ccccn2)cc1Cl [Compound 7502, 3-Chloro-N^1-(pyridin-2-yl)benzene-1,4-diamine] | 460 nM
39 | Nc1ncccc1-c1ccc2scnc2c1 [Compound 8723, 3-(Benzo[d]thiazol-5-yl)pyridin-2-amine] | 1300 nM
40 | Nc1ncccc1-c1ccc2[nH]ncc2c1 [Compound 9241, 3-(1H-Indazol-5-yl)pyridin-2-amine] | 2100 nM
41 | C=C(c1ccccc1)c1cccnc1N [Compound 9280] | 2600 nM
42 | CN(c1cccc(O)c1)c1cc(N)ccn1 [Compound 9448, 3-((4-Aminopyridin-2-yl)(methyl)amino)phenol] | 2900 nM
43 | Cc1coc2ccc(C3=CCCNC3)cc12 [Compound 9677, 5-(3-Methylbenzofuran-5-yl)-1,2,3,6-tetrahydropyridine] | 170 nM
44 | C=C(c1ccccc1)c1c(F)ccnc1N [Compound 9689] | 7300 nM
45 | C1=C(c2ccc3c(c2)CCO3)CNCC1 [Compound 9700, 5-(2,3-Dihydrobenzofuran-5-yl)-1,2,3,6-tetrahydropyridine] | 800 nM
46 | Cc1cccc(N(C)c2ccc(N)nc2)c1 [Compound 9878, N^5-methyl-N^5-(m-tolyl)pyridine-2,5-diamine] | 1100 nM
47 | Nc1ccc(-c2cc([N+](=O)[O-])c3[nH]ncc3c2)cn1 [TP70, 5-(7-Nitro-1H-indazol-5-yl)pyridin-2-amine] | 3200 nM
48 | Nc1ccc(-c2cc(Cl)c3[nH]ncc3c2)cn1 [TP73, 5-(7-Chloro-1H-indazol-5-yl)pyridin-2-amine] | 8700 nM
49 | Nc1ccc(-c2cc3cn[nH]c3cc2Cl)cn1 [TP74, 5-(6-Chloro-1H-indazol-5-yl)pyridin-2-amine] | 200 nM
50 | Nc1ccc(-c2cc3cn[nH]c3cc2F)cn1 [TP75, 5-(6-Fluoro-1H-indazol-5-yl)pyridin-2-amine] | 89 nM
51 | Nc1ccc(-c2cc3cn[nH]c3cc2[N+](=O)[O-])cn1 [TP78, 5-(6-Nitro-1H-indazol-5-yl)pyridin-2-amine] | 910 nM

Same assay, conditions: Gi recruitment, Tables 7-9; read-out: G protein Emax (%)

Row | Molecule | Emax
52 | N#Cc1cc2[nH]ncc2cc1-c1ccc(N)nc1 [BSC2998-E02] | 14%
53 | N#Cc1ccc(C2=CCCNC2)c2cccnc12 [PS-NN05] | < 5%
54 | C1=C(c2cccc3ncncc23)CNCC1 [PS-NN06] | < 10%
55 | Nc1ccc(-c2cc([N+](=O)[O-])c3[nH]ncc3c2)cn1 [TP70, 5-(7-Nitro-1H-indazol-5-yl)pyridin-2-amine] | -27%
56 | Nc1ccc(-c2cc(Cl)c3[nH]ncc3c2)cn1 [TP73, 5-(7-Chloro-1H-indazol-5-yl)pyridin-2-amine] | 27%
57 | Nc1ccc(-c2cc3cn[nH]c3cc2Cl)cn1 [TP74, 5-(6-Chloro-1H-indazol-5-yl)pyridin-2-amine] | 64%
58 | Nc1ccc(-c2cc3cn[nH]c3cc2F)cn1 [TP75, 5-(6-Fluoro-1H-indazol-5-yl)pyridin-2-amine] | 18%
59 | Nc1ccc(-c2cc3cn[nH]c3cc2[N+](=O)[O-])cn1 [TP78, 5-(6-Nitro-1H-indazol-5-yl)pyridin-2-amine] | 51%

Molecular target: T1, ALPHA-2A ADRENERGIC RECEPTOR
Experiment: Arrestin recruitment
Format: cell-based
Conditions: Tables 7-9

Row | Molecule | Arrestin Emax (%) | Emax
60 | 4-(1,2,5,6-tetrahydropyridin-3-yl)-1H-indole [PS-NN04] | <10% | –
61 | N#Cc1ccc(C2=CCCNC2)c2cccnc12 [PS-NN05] | – | < 10%
62 | C1=C(c2cccc3ncncc23)CNCC1 [PS-NN06] | – | < 10%
63 | Nc1ccc(-c2cc([N+](=O)[O-])c3[nH]ncc3c2)cn1 [TP70, 5-(7-Nitro-1H-indazol-5-yl)pyridin-2-amine] | – | < 10%
64 | Nc1ccc(-c2cc(Cl)c3[nH]ncc3c2)cn1 [TP73, 5-(7-Chloro-1H-indazol-5-yl)pyridin-2-amine] | – | < 10%
65 | Nc1ccc(-c2cc3cn[nH]c3cc2Cl)cn1 [TP74, 5-(6-Chloro-1H-indazol-5-yl)pyridin-2-amine] | – | < 10%
66 | Nc1ccc(-c2cc3cn[nH]c3cc2F)cn1 [TP75, 5-(6-Fluoro-1H-indazol-5-yl)pyridin-2-amine] | – | < 10%
67 | Nc1ccc(-c2cc3cn[nH]c3cc2[N+](=O)[O-])cn1 [TP78, 5-(6-Nitro-1H-indazol-5-yl)pyridin-2-amine] | – | < 10%

Same assay, conditions: at 100 μM

Row | Molecule | Arrestin effect at 100 μM
68 | N#Cc1cc2[nH]ncc2cc1-c1ccc(N)nc1 [BSC2998-E02] | 25% at 100 μM

Source: patent US20250032476A1, “ALPHA-2A ADRENERGIC RECEPTOR MODULATORS AND USES THEREOF” (The Regents of the University of California, priority 2021, published 2025)
